Patent US20220218647A1, “DIETARY BUTYRATE” (SOCIETE DES PRODUITS NESTLE S.A., priority 2019, published 2022)

Key:
[1] = biological target: T1, porcine pancreatic lipase (PPL) (Sus scrofa, UniProt P00591); experiment: In vitro lipid digestion in simulated intestinal fluid (SIF), pH-stat; format: in vitro ADME; parameters: by porcine pancreatic lipase (from pancreatin); from tissue; host or cells: pancreatin (pig pancreas extract); conditions: SIF alone; emulsion containing 200 mg fat, pH 6.8, 37° C.
T1 sequence (P00591 1-450): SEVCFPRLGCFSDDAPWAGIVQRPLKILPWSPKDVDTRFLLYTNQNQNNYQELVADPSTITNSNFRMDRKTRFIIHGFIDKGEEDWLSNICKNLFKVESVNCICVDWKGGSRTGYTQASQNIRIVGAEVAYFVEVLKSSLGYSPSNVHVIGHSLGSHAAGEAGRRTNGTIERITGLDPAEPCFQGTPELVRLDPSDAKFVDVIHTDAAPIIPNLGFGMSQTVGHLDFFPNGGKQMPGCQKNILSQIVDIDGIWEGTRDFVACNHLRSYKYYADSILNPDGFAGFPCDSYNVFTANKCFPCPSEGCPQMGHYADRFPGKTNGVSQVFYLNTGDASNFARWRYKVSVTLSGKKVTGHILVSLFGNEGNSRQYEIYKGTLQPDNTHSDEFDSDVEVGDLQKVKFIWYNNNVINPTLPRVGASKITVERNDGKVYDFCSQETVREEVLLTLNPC
T1 sequence (P02703 23-112 partner): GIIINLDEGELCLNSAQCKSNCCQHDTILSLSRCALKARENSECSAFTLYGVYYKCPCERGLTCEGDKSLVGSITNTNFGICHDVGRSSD
Text: (§1) An emulsion was then created using an ultrasonic probe homogeniser.

[2] = system: rabbit gastric lipase (RGL) followed by porcine pancreatic lipase (PPL); experiment: Sequential in vitro digestion in simulated gastric fluid (SGF) followed by SIF, pH-stat; format: in vitro ADME
Text: as §1

[3] = biological target: T1, porcine pancreatic lipase (PPL); conditions: pig, 3 h, pH 11.5
Text: Because many fatty acids are only partially ionised at pH 6.8, direct titration gives only partial picture of the extent of lipid digestion, instead back titration to pH 11.5 or GC-FAME analysis is required to estimate the full extent of digestion.

initial rate of lipolysis [1]: 223 ± 59 µmol/min | initial lipolysis rate in SIF compartment ([2]; SGF-SIF sequential digestion, 200 mg fat): 44.1 ± 8.8 µmol/min | hydrolysis in the stomach ([2]; gastric compartment of the model): extensive hydrolysis | lipolysis by gastric lipase ([2]; indicated by decreased total fatty acid release during SIF lipolysis after pre-exposure to RGL in SGF): ~60% | extent of digestion [3]: 101.5±0.9%
Structure (SMILES): CCCC(=O)OCC(COC(=O)CCC)OC(=O)CCC [tributyrin]
